In patent publication US12459922B2 (Gilead Sciences, Inc., priority 2022, dated 2025):

Tested on: endogenous cellular STAT1 (phosphorylated at Tyr701) in NCI-H1373 cells
Assay: Phospho-STAT1 (Tyr701) LANCE Ultra TR-FRET Detection Assay
Format: cell-based
Conditions: Homo sapiens, NCI-H1373, 48 h, phospho-STAT1 (Tyr701) induction, read-out: NH1373 pSTAT1 EC50

| Structure (SMILES) | EC50 [nM] |
| --- | --- |
| O=c1[nH]ncc(N[C@H](CCCn2cnc3cc(-c4cnc(C(F)(F)F)cn4)c(F)cc3c2=O)COC(F)F)c1C(F)(F)F [Example 420, (R)-3-(5-(difluoromethoxy)-4-((6-oxo-5-(trifluoromethyl)-1,6-dihydropyridazin-4-yl)amino)pentyl)-6-fluoro-7-(5-(trifluoromethyl)pyrazin-2-yl)quinazolin-4(3H)-one] | 9.41 |
| Nc1nc(-c2cc3ccn(CCC[C@H](COC(F)F)Nc4cn[nH]c(=O)c4C(F)(F)F)c(=O)c3cc2F)n[nH]1 [Example 421, (R)-6-(5-amino-1H-1,2,4-triazol-3-yl)-2-(5-(difluoromethoxy)-4-((6-oxo-5-(trifluoromethyl)-1,6-dihydropyridazin-4-yl)amino)pentyl)-7-fluoroisoquinolin-1(2H)-one] | 110 |
| O=c1[nH]ncc(N[C@H](CCCn2ccc3cc(-c4cnc(N5CCOCC5)cn4)c(F)cc3c2=O)COC(F)F)c1C(F)(F)F [Example 422, (R)-2-(5-(difluoromethoxy)-4-((6-oxo-5-(trifluoromethyl)-1,6-dihydropyridazin-4-yl)amino)pentyl)-7-fluoro-6-(5-morpholinopyrazin-2-yl)isoquinolin-1(2H)-one] | 87.9 |
| O=c1[nH]ncc(N[C@H](CCCn2ccc3cc(-c4cnc(N5CCNCC5)cn4)c(F)cc3c2=O)COC(F)F)c1C(F)(F)F [Example 423, (R)-2-(5-(difluoromethoxy)-4-((6-oxo-5-(trifluoromethyl)-1,6-dihydropyridazin-4-yl)amino)pentyl)-7-fluoro-6-(5-(piperazin-1-yl)pyrazin-2-yl)isoquinolin-1(2H)-one] | 446 |
| O=c1[nH]ncc(N[C@H](CCCn2ccc3cc(-c4cnc(C(F)F)cn4)c(F)cc3c2=O)COC(F)F)c1C(F)(F)F [Example 424, (R)-2-(5-(difluoromethoxy)-4-((6-oxo-5-(trifluoromethyl)-1,6-dihydropyridazin-4-yl)amino)pentyl)-6-(5-(difluoromethyl)pyrazin-2-yl)-7-fluoroisoquinolin-1(2H)-one] | 3.11 |
| O=c1[nH]ncc(N[C@H](CCCn2cnc3cc(-c4ccc5c(n4)NCCO5)c(F)cc3c2=O)COC(F)F)c1C(F)(F)F [Example 425, (R)-3-(5-(difluoromethoxy)-4-((6-oxo-5-(trifluoromethyl)-1,6-dihydropyridazin-4-yl)amino)pentyl)-7-(3,4-dihydro-2H-pyrido[3,2-b][1,4]oxazin-6-yl)-6-fluoroquinazolin-4(3H)-one] | 9.83 |
| Nc1nc(-c2cc3ncn(CCC[C@H](COC(F)F)Nc4cn[nH]c(=O)c4C(F)(F)F)c(=O)c3cc2F)ncc1Cl [Example 426, (R)-7-(4-amino-5-chloropyrimidin-2-yl)-3-(5-(difluoromethoxy)-4-((6-oxo-5-(trifluoromethyl)-1,6-dihydropyridazin-4-yl)amino)pentyl)-6-fluoroquinazolin-4(3H)-one] | 14.2 |
| [2H]C([2H])([2H])OC[C@@H](CCCn1ccc2cc(-c3ncc(C(F)(F)F)c(N)n3)c(F)cc2c1=O)Nc1cn[nH]c(=O)c1C(F)(F)F [Example 427, 6-[4-amino-5-(trifluoromethyl)pyrimidin-2-yl]-7-fluoro-2-[(4R)-4-[[6-oxo-5-(trifluoromethyl)-1H-pyridazin-4-yl]amino]-5-(trideuteriomethoxy)pentyl]isoquinolin-1-one] | 2.87 |
| [2H]C([2H])([2H])OC[C@@H](CCCn1ccc2cc(-c3ncc(C(F)F)cn3)c(F)cc2c1=O)Nc1cn[nH]c(=O)c1C(F)(F)F [Example 428, 6-[5-(difluoromethyl)pyrimidin-2-yl]-7-fluoro-2-[(4R)-4-[[6-oxo-5-(trifluoromethyl)-1H-pyridazin-4-yl]amino]-5-(trideuteriomethoxy)pentyl]isoquinolin-1-one] | 4.17 |
| [2H]C([2H])([2H])OC[C@@H](CCCn1ccc2cc(-c3ncc(C(F)F)c(N)n3)c(F)cc2c1=O)Nc1cn[nH]c(=O)c1C(F)(F)F [Example 429, 6-[4-amino-5-(difluoromethyl)pyrimidin-2-yl]-7-fluoro-2-[(4R)-4-[[6-oxo-5-(trifluoromethyl)-1H-pyridazin-4-yl]amino]-5-(trideuteriomethoxy)pentyl]isoquinolin-1-one] | 7.21 |
| [2H]C([2H])([2H])OC[C@@H](CCCn1cnc2cc(-c3ncc(C(F)(F)F)cn3)c(F)cc2c1=O)Nc1cn[nH]c(=O)c1C(F)(F)F [Example 430, 6-fluoro-3-[(4R)-4-[[6-oxo-5-(trifluoromethyl)-1H-pyridazin-4-yl]amino]-5-(trideuteriomethoxy)pentyl]-7-[5-(trifluoromethyl)pyrimidin-2-yl]quinazolin-4-one] | 2.63 |

Next, values leading:

| EC50 [nM] | Structure (SMILES) |
| --- | --- |
| 6.42 | [2H]C([2H])([2H])OC[C@@H](CCCn1cnc2cc(-c3ncc(C(F)F)cn3)c(F)cc2c1=O)Nc1cn[nH]c(=O)c1C(F)(F)F [Example 431] |
| 12.7 | [2H]C([2H])([2H])OC[C@@H](CCCn1cnc2cc(-c3ncc(C(F)(F)F)c(N)n3)c(F)cc2c1=O)Nc1cn[nH]c(=O)c1C(F)(F)F [Example 432] |
| 15.6 | [2H]C([2H])([2H])OC[C@@H](CCCn1cnc2cc(-c3ncc(C(F)F)c(N)n3)c(F)cc2c1=O)Nc1cn[nH]c(=O)c1C(F)(F)F [Example 433] |
| 13 | [2H]C([2H])([2H])OC[C@@H](CCCn1ccc2cc(-c3ccc(C(F)(F)F)cn3)c(F)cc2c1=O)Nc1cn[nH]c(=O)c1C(F)(F)F [Example 434] |
| 2.83 | O=c1[nH]ncc(N[C@H](CCCn2ccc3cc(-c4ncc(C(F)(F)F)cn4)c(F)cc3c2=O)COC(F)(F)F)c1C(F)(F)F [Example 435, (R)-7-fluoro-2-(4-((6-oxo-5-(trifluoromethyl)-1,6-dihydropyridazin-4-yl)amino)-5-(trifluoromethoxy)pentyl)-6-(5-(trifluoromethyl)pyrimidin-2-yl)isoquinolin-1(2H)-one] |
| 23.1 | Nc1nc(-c2cc3ccn(Cc4cccc(Nc5cn[nH]c(=O)c5C(F)(F)F)c4)c(=O)c3cc2F)ncc1C(F)(F)F [Example 438, 6-(4-amino-5-(trifluoromethyl)pyrimidin-2-yl)-7-fluoro-2-(3-((6-oxo-5-(trifluoromethyl)-1,6-dihydropyridazin-4-yl)amino)benzyl)isoquinolin-1(2H)-one] |
| 534 | O=c1[nH]ncc(N[C@H](CCCn2ccc3cc(-c4nc5n(n4)CCNC5)c(F)cc3c2=O)COC(F)F)c1C(F)(F)F [Example 439, (R)-2-(5-(difluoromethoxy)-4-((6-oxo-5-(trifluoromethyl)-1,6-dihydropyridazin-4-yl)amino)pentyl)-7-fluoro-6-(5,6,7,8-tetrahydro-[1,2,4]triazolo[1,5-a]pyrazin-2-yl)isoquinolin-1(2H)-one] |
| 1750 | O=c1[nH]ncc(N[C@H]2CCN[C@@H]2CCn2ccc3cc(-c4ncc(C(F)(F)F)cn4)c(F)cc3c2=O)c1C(F)(F)F [Example 440, 7-fluoro-2-(2-((2R,3S)-3-((6-oxo-5-(trifluoromethyl)-1,6-dihydropyridazin-4-yl)amino)pyrrolidin-2-yl)ethyl)-6-(5-(trifluoromethyl)pyrimidin-2-yl)isoquinolin-1(2H)-one] |
| 1850 | C[C@H](Nc1cn[nH]c(=O)c1C(F)(F)F)[C@@H](O)CCn1ccc2cc(-c3ncc(C(F)(F)F)cn3)c(F)cc2c1=O [Example 442, 7-fluoro-2-((3S,4S)-3-hydroxy-4-((6-oxo-5-(trifluoromethyl)-1,6-dihydropyridazin-4-yl)amino)pentyl)-6-(5-(trifluoromethyl)pyrimidin-2-yl)isoquinolin-1(2H)-one] |
| 273 | O=c1[nH]ncc(N[C@H]2CC[C@@H](Cn3ccc4cc(-c5ncc(C(F)(F)F)cn5)c(F)cc4c3=O)C2)c1C(F)(F)F [Example 443, 7-fluoro-2-(((1R,3S)-3-((6-oxo-5-(trifluoromethyl)-1,6-dihydropyridazin-4-yl)amino)cyclopentyl)methyl)-6-(5-(trifluoromethyl)pyrimidin-2-yl)isoquinolin-1(2H)-one] |
| 25.1 | Nc1nc(-c2cc3ccn(C[C@@H]4CC[C@H](Nc5cn[nH]c(=O)c5C(F)(F)F)C4)c(=O)c3cc2F)ncc1C(F)(F)F [Example 444, 6-(4-amino-5-(trifluoromethyl)pyrimidin-2-yl)-7-fluoro-2-(((1R,3S)-3-((6-oxo-5-(trifluoromethyl)-1,6-dihydropyridazin-4-yl)amino)cyclopentyl)methyl)isoquinolin-1(2H)-one] |
| 18.5 | C[C@H](Nc1cn[nH]c(=O)c1C(F)(F)F)[C@H](O)CCn1ccc2cc(-c3ncc(C(F)(F)F)cn3)c(F)cc2c1=O [Example 445, 7-fluoro-2-((3R,4S)-3-hydroxy-4-((6-oxo-5-(trifluoromethyl)-1,6-dihydropyridazin-4-yl)amino)pentyl)-6-(5-(trifluoromethyl)pyrimidin-2-yl)isoquinolin-1(2H)-one] |
| 270 | O=c1[nH]ncc(N[C@@H]2CC[C@H](Cn3ccc4cc(-c5ncc(C(F)(F)F)cn5)c(F)cc4c3=O)C2)c1C(F)(F)F [Example 446, 7-fluoro-2-(((1S,3R)-3-((6-oxo-5-(trifluoromethyl)-1,6-dihydropyridazin-4-yl)amino)cyclopentyl)methyl)-6-(5-(trifluoromethyl)pyrimidin-2-yl)isoquinolin-1(2H)-one] |
| 25.6 | Nc1nc(-c2cc3ccn(C[C@H]4CC[C@@H](Nc5cn[nH]c(=O)c5C(F)(F)F)C4)c(=O)c3cc2F)ncc1C(F)(F)F [Example 447, 6-(4-amino-5-(trifluoromethyl)pyrimidin-2-yl)-7-fluoro-2-(((1S,3R)-3-((6-oxo-5-(trifluoromethyl)-1,6-dihydropyridazin-4-yl)amino)cvclopentyl)methyl)isoquinolin-1(2H)-one] |
| 6.82 | O=c1[nH]ncc(N[C@H]2CCC[C@@H]2CCn2cnc3cc(-c4ncc(Cl)cn4)c(F)cc3c2=O)c1C(F)(F)F [Example 448, 7-(5-chloropyrimidin-2-yl)-6-fluoro-3-(2-((1R,2S)-2-((6-oxo-5-(trifluoromethyl)-1,6-dihydropyridazin-4-yl)amino)cyclopentyl)ethyl)quinazolin-4(3H)-one] |
